O=C(/C=C/c1ccc(O)c(O)c1)O[C@H](Cc1ccc(O)c(O)c1)C(=O)O
solubility (mole fraction)
Settings	293.15 K	298.15 K	303.15 K	308.15 K	313.15 K
in ethyl acetate	0.0345	0.0466	0.0506	0.0588	0.0722
in methyl acetate	0.0363	0.049	0.0533	0.0619	0.0764

— BigSolDB 2.1
